According to patent US20210238173A1, “MITOGEN-ACTIVATED PROTEIN KINASE KINASE 7 INHIBITORS” (Yeda Research and Development Co. Ltd., priority 2018, published 2021):
Read-outs that look alike come from different tables or passages of the source.

What was measured:
[1] = Metabolic stability in human liver microsomes; type: in vitro ADME; conditions: for half-life: human, liver microsomes
Source text: (§1) A reference compound, REF1250, was used in this study: […]

[2] = Metabolic stability in mouse liver microsomes; type: in vitro ADME; conditions: for half-life: mouse, liver microsomes
Source text: as §1

MKK7 [3] = target: T1, MKK7 (Homo sapiens, UniProt O14733); assay: Intact protein mass spectrometry covalent labeling; type: binding; conditions: 4° C., molecule 20 μM, protein 10 μM
T1 construct: MKK7 isoform 1 (103-426 residues) with a C-terminal 6-His tag; 6-His (C); made in house; host or cells: E. coli Rosetta2 (DE3) pLysS
T1 sequence (O14733 103-426 isoform O14733-3): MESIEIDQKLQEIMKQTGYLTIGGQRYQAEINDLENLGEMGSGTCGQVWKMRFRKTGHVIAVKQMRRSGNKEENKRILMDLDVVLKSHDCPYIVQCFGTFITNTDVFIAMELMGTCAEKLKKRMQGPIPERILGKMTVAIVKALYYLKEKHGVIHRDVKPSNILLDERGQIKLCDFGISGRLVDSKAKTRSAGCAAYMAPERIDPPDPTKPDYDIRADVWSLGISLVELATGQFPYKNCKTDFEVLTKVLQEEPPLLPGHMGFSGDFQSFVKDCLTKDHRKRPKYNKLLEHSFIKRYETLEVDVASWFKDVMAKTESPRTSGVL
Method: Intact Protein Mass Spectrometry:
Samples were injected after indicated incubation times into LC/MS (Waters ACUITY UPLC class H), in positive ion mode using electrospray ionization. C4 column (300 Å, 1.7 μM, […]×100 mm) was held at 40° C., and the autosampler at 10° C. Desolvation temperature was 500° C. with flow rate of 1000 liter/hour. The voltage used were 0.69 kV for the capillary and 46 V for the cone. Spectra were deconvoluted using MaxEnt1 software.
After 1 hour or 16 hours incubation at 4° C.

MKK7 [4] = target: T2, MKK7 (Homo sapiens, UniProt O14733); assay: In vitro kinase activity assay for MKK7 (Nanosyn); type: biochemical
T2 construct: purchased Nanosyn (contract assay)
T2 sequence (O14733 1-419): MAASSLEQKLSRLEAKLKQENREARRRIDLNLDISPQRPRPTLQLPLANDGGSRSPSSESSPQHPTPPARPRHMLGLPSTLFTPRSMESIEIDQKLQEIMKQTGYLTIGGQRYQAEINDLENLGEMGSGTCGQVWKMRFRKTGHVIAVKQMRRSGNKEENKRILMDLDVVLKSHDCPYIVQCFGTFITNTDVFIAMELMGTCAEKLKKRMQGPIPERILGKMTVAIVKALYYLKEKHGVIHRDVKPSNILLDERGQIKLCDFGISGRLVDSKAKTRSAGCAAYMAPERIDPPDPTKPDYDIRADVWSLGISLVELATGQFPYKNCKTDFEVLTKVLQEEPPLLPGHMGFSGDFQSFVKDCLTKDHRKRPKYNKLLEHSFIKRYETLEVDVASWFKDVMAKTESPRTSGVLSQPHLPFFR

% remaining @ 40 min [1] [%]	half-life [1] [min]	% remaining @ 40 min [2] [%]	half-life [2] [min]	covalent labeling (MKK7 [3]; 1 hour) [%]	covalent labeling (MKK7 [3]; 16 hours) [%]	IC50 (MKK7 [4]; read-out: MKK7 IC50 in vitro) [nM]	potency towards MKK7 compared with Aurora kinase (MKK7 [4]; MKK7 nanomolar, Aurora kinase micromolar)	IC50 (MKK7 [4]; read-out: MKK7 IC50) [nM]	SMILES
0	< 5	0	< 5	65.16	95.15	11	–	–	C=CC(=O)Nc1cccc(-c2n[nH]c3c2CCCC3)c1 [GO4]
0	< 5	0	< 5	78.14	96.29	6	at least two orders of magnitude	9	C=CC(=O)Nc1cccc(-c2n[nH]c3ccccc23)c1 [GO32]
0	< 5	0	< 5	59.58	92.87	5	–	–	C=CC(=O)Nc1cccc(-c2n[nH]c3cc(C)ccc23)c1 [GO80]
